The structures appear in SMILES notation.

Holding throughout (assay type): biochemical
The target in assay [1] is T1, syn-F/SBPase (Synechocystis sp. PCC 6803, UniProt P73922, R194H).
T1 construct: gene slr2094; recombinant, codon-optimised, pET-28a(+), E. coli BL21, HisTrap purified; homotetramer
In words: Malachite Green phosphate release, activation. To be noted: substrate fructose-1,6-bisphosphate; AMP-insensitive variant.

Assay [2] has as its target T2, cn-TKT (Cupriavidus necator, UniProt P21726).
T2 construct: gene cbbTP; recombinant from genomic DNA, pET-28a(+), E. coli BL21, HisTrap purified
T2 sequence (P21726 1-670): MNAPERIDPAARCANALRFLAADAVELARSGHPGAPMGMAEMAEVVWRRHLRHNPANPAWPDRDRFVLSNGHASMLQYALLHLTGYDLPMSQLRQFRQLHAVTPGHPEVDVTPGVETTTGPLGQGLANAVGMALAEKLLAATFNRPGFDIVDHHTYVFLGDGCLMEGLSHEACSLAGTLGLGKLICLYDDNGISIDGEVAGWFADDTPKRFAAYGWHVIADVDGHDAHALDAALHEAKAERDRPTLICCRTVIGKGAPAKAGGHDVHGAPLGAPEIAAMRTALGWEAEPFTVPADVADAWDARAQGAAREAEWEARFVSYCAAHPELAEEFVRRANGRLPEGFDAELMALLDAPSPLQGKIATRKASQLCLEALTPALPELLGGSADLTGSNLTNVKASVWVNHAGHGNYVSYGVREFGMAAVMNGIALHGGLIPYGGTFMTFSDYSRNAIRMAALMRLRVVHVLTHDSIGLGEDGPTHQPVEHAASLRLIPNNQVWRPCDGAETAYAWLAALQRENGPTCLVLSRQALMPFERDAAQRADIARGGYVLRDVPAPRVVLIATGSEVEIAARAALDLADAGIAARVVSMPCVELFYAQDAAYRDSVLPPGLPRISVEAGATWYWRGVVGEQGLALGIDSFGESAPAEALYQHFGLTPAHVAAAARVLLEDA
In words: alcohol dehydrogenase-coupled NADH consumption at […] nm. To be noted: 100 mM L-erythrulose, 2 mM thiamine pyrophosphate, 5 mM MgCl2, 100 mM glycylglycine pH 7.5; no added metabolite.

The target in assay [3] is T3, syn-TKT (Synechocystis sp. PCC 6803, UniProt P73282).
T3 construct: gene tktA; recombinant from genomic DNA, pET-28a(+), E. coli BL21, HisTrap purified
T3 sequence (P73282 1-670): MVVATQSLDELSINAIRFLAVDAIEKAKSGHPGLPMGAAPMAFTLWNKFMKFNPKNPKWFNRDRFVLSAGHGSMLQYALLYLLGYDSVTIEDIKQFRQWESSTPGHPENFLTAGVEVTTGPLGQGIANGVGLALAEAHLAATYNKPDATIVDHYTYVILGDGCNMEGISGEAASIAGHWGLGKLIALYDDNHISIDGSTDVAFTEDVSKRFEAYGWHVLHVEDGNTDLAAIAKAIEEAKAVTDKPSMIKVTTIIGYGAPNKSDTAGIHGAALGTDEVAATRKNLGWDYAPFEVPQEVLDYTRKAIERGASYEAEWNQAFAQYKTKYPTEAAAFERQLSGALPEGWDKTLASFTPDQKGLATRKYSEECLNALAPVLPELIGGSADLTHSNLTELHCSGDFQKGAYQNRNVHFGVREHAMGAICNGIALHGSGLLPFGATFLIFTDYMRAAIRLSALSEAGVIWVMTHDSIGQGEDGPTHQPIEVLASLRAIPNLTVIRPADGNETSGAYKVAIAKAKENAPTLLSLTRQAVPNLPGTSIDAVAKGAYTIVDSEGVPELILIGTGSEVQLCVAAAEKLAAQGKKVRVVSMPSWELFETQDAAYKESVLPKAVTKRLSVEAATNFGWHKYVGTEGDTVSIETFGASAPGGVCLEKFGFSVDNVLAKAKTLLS
The assay is described as above. To be noted: 100 mM L-erythrulose, 2 mM thiamine pyrophosphate, 5 mM MgCl2, 100 mM glycylglycine pH 7.5; no added metabolite.

Assay [4] deals with T3, syn-TKT. In words: alcohol dehydrogenase-coupled NADH assay, inhibition. To be noted: 1 mM AMP, glycylglycine pH 7.5, thiamine pyrophosphate, Mg2+.
Assay [5] concerns the target T2, cn-TKT. The description is as above. To be noted: 1 mM dihydroxyacetone phosphate, glycylglycine pH 7.5, thiamine pyrophosphate, Mg2+.
Assay [6] addresses T1, syn-F/SBPase. Nature of the assay: Malachite Green phosphate release, inhibition. To be noted: substrate fructose-1,6-bisphosphate; AMP-insensitive variant.
Assay [7] deals with T4, cn-F/SBPase (Cupriavidus necator, UniProt P19912).
T4 construct: gene fbp3; recombinant, codon-optimised, pET-28a(+), E. coli BL21, HisTrap purified
T4 sequence (P19912 1-364): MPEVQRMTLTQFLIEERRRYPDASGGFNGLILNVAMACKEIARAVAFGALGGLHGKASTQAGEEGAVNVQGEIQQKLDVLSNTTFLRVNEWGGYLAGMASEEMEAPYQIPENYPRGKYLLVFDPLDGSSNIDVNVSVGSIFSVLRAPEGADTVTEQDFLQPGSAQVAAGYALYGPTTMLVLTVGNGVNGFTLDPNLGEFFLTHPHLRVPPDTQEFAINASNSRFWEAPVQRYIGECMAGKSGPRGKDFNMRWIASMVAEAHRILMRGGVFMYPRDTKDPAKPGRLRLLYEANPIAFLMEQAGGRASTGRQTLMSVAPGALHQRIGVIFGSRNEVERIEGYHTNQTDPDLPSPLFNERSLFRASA
In words: Malachite Green phosphate release, Hill fit. To be noted: 50 mM Tris-HCl, 15 mM MgCl2, 10 mM DTT, 30 °C; no added metabolite.

Assay [8] addresses T5, syn-F/SBPase (Synechocystis sp. PCC 6803, UniProt P73922).
T5 construct: gene slr2094; recombinant, codon-optimised, pET-28a(+), E. coli BL21, HisTrap purified; homotetramer
T5 sequence (P73922 1-345): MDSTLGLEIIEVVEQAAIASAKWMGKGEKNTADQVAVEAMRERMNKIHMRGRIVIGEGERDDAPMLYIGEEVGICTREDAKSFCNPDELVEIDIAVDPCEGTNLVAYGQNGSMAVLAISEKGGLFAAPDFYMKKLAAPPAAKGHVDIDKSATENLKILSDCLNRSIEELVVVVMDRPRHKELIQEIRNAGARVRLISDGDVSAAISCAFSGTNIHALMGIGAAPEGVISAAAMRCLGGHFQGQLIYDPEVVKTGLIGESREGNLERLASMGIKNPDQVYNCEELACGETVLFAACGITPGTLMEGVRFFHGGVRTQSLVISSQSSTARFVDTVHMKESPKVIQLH
Nature of the assay: Malachite Green phosphate release, Hill fit. To be noted: 50 mM Tris-HCl, 15 mM MgCl2, 10 mM DTT, 30 °C; no added metabolite.

T1 sequence (P73922 whole entry R194H): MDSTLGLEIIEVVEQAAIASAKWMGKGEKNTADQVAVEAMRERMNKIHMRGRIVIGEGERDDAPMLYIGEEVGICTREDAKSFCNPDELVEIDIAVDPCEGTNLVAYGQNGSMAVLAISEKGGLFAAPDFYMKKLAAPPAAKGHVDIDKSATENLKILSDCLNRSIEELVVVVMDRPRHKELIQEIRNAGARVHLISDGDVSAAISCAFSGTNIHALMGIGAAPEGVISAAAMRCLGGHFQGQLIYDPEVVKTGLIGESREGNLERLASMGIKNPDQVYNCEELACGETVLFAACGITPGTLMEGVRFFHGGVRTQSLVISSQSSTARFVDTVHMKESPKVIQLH

On to `O=C[C@H](O)COP(=O)(O)O` [GAP, glyceraldehyde-3-phosphate], for which the “Malachite Green phosphate release, activation” value in assay [1] is “This mutant lost AMP sensitivity but retained sensitivity to both GAP activation and NADPH inhibition”.
As to `O=P(O)(O)OC[C@H]1OC(O)[C@H](O)[C@@H]1O` (stereo partly drawn) [D-ribose-5-phosphate], the KM entry is “conversion of D-ribose-5-phosphate and L-erythrulose to sedoheptulose-7-phosphate and glycolaldehyde was measured” in assay [2]; “conversion of D-ribose-5-phosphate and L-erythrulose to sedoheptulose-7-phosphate and glycolaldehyde was measured” in assay [3].
For `Nc1ncnc2c1ncn2[C@@H]1O[C@H](COP(=O)(O)O)[C@@H](O)[C@H]1O` [AMP], the “alcohol dehydrogenase-coupled NADH assay, inhibition” value in assay [4] was “AMP and dihydroxyacetone phosphate, which specifically reduced the activity of syn-TKT and cn-TKT, respectively”.
`O=C(CO)COP(=O)(O)O` [dihydroxyacetone phosphate]: in assay [5], the “alcohol dehydrogenase-coupled NADH assay, inhibition” value was “AMP and dihydroxyacetone phosphate, which specifically reduced the activity of syn-TKT and cn-TKT, respectively”.
Regarding `NC(=O)C1=CN([C@@H]2O[C@H](COP(=O)(O)OP(=O)(O)OC[C@H]3O[C@@H](n4cnc5c(N)ncnc54)[C@H](OP(=O)(O)O)[C@@H]3O)[C@@H](O)[C@H]2O)C=CC1` [NADPH], the “Malachite Green phosphate release, inhibition” value in assay [6] was “This mutant lost AMP sensitivity but retained sensitivity to both GAP activation and NADPH inhibition”.
As for `O=P(O)(O)OC[C@H]1OC(O)(COP(=O)(O)O)[C@@H](O)[C@@H]1O` (some centres unmarked) [fructose-1,6-bisphosphate], the KM result in assay [7] was “Initial rates of syn-F/SBPase and cn-F/SBPase were measured at different substrate concentrations”; in assay [8], “activity on the substrate fructose-1,6-bisphosphate was screened using Malachite Green (MG) detection”.
